Laboratory results taken from patent US8012983B2, “Substituted triazolopyrazines useful for the treatment of degenerative and inflammatory diseases” (Galapagos NV, priority 2008, dated 2011).

Tests used:
MAPKAPK5 = molecular target: T1, MAPKAPK5 (Homo sapiens, UniProt Q8IW41); experiment: MAPKAP-K5 FlashPlate kinase assay; type: biochemical; conditions: 0.6 μM ATP, 30 minutes, room temperature
T1 sequence (Q8IW41 1-471 isoform Q8IW41-2): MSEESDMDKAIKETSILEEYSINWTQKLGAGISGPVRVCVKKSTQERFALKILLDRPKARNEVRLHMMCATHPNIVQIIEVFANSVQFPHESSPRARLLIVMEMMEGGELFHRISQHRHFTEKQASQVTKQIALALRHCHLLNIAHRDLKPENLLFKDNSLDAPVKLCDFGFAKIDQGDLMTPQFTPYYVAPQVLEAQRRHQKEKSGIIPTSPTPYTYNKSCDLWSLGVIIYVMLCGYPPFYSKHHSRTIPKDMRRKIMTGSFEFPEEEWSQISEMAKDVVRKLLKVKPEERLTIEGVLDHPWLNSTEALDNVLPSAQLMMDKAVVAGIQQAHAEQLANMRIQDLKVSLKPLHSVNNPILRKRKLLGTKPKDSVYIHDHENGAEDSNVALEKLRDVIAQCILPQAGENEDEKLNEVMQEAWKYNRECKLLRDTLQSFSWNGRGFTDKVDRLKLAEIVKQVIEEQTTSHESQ
Procedure: MAPKAP-K5 reactions are performed in FlashPlate format using 0.1 or 0.2 μCi 33P-ATP; 0.6 μM ATP; 1 mU MAPKAP-K5; 3 μM MAPKAP-K5 peptide substrate, incubated at room temperature for 30 minutes.
The MAPKAP-K5 kinase reaction is performed in a 384 well polypropylene plate (Matrix Technologies) and then transferred to a streptavidin-coated 384 well flashplate (Perkin-Elmer). To wells containing 2 μL test compound or standard inhibitor, 13 μL Enzyme mix or diluent are added using a Hydra (Robbins Scientific). Reactions are started by addition of 10 μL of [2.5×] substrate cocktail using a Multidrop (Thermo-Labsystems), to give final concentrations in the assay of: • 1 mU MAPKAP-K5 • 3 μM MAPKAP-K5 peptide substrate • 0.6 μM ATP • 0.004 μCi [33P]-γ-ATP/μL • 1× reaction buffer
Plates are incubated at room temperature for 30 minutes. Reactions are terminated by the addition of 25 μL EDTA (50 mM) to each well using a Micro-fill (Biotek). Reactions are transferred to a streptavidin-coated flashplate using a Zymark robotic system. Plates are incubated for 60 minutes at room temperature. All wells are washed 3 times with 100 μl phosphate buffered saline using a Tecan plate washer. Radioactivity is determined by scintillation counting of the flashplate (empty wells) on a Packard TopCount.
Enzyme Mix: • Enzyme • 50 mM Tris Hcl (pH 7.5) • 0.1 mM EGTA • 2 mM DTT • 1 mg/mL BSA
Reaction Buffer: • 50 mM Tris Hcl (pH 7.5) • 0.1 mM EGTA • 10 mM Magnesium acetate • 2 mM DTT

[1] = system: MMP1 expression by activated synovial fibroblasts (RASFs); experiment: 'MMP assay': complex trigger-induced MMP1 expression by synovial fibroblasts (MMP1 ELISA); type: cell-based; conditions: Homo sapiens, Fibroblast; RASFs, complex trigger, 48 hrs; read-out: MMP1 IC50
Procedure: A 384-well format ELISA for measurement of MMP1 is developed. Various primary antibodies are tested, as well as various ELISA protocols. The following protocol is developed and validated to measure MMP1 levels in SF supernatant in 384 well plates: white Lumitrac 600 384 well plates (Greiner) are coated with 2 μg/mL anti-MMP1 antibody MAB1346 (Chemicon). The antibody is diluted in buffer 40 (1.21 g Tris base (Sigma), 0.58 g NaCl (Calbiochem) and 5 ml 10% NaN3 (Sigma) in 1 L milliQ water and adjusted to pH 8.5). After overnight incubation at 4° C., plates are washed with PBS (80 g NaCl, 2 g KCl (Sigma), 11.5 g Na2HPO4.7H2O and 2 g KH2PO4 in 10 L milliQ; pH 7.4) and blocked with 100 μL/well Casein buffer (2% Casein (VWR International) in PBS). Next day, casein buffer is removed from ELISA plates and replaced by 50 μL/well EC buffer (4 g casein, 2.13 g Na2HPO4 (Sigma), 2 g bovine albumin (Sigma), 0.69 g NaH2PO4.H2O (Sigma), 0.5 g CHAPS (Roche), 23.3 g NaCl, 4 ml 0,5 M EDTA pH 8 (Invitrogen), 5 ml 10% NaN3 in 1 L milliQ and adjusted to pH 7.0). 0.25 mM DTT (Sigma) is added to the thawed samples plates. After removal of the EC buffer, 20 μL of sample is transferred to the ELISA plates. After overnight incubation at 4° C. plates are washed twice with PBS and once with PBST (PBS with 0.05% Tween-20 (Sigma)) and incubated with 35 μL/well biotinylated anti-MMP1 antibody solution (R&D). This secondary antibody is diluted in buffer C (0.82 g NaH2PO4.H2O, 4.82 g Na2HPO4, 46.6 g NaCl, 20 g bovine albumin and 4 mL 0,5M EDTA pH 8 in 2 L milliQ and adjusted to pH 7.0) at a concentration of 5 μg/mL. After 2 h of incubation at RT, plates are washed as described above and incubated with 50 μL/well streptavidin-HRP conjugate (Biosource). Streptavidin-HRP conjugate is diluted in buffer C at a concentration of 0.25 μg/mL. After 45 min, plates are washed as described above and incubated for 5 min with 50 μL/well BM Chem ELISA Substrate (Roche). Readout is performed on the Luminoscan Ascent Luminometer (Labsystems) with an integration time of 200 msec or with an Envision reader (Perkin Elmer).
The increase of MMP1 expression by SFs upon treatment with cytokines relevant in the field of RA (TNF-α, IL1β and OSM) or a combination thereof is shown in FIG. 2 as white bars. For this experiment, SFs are seeded in 96 well plates, 3,000 cells/well. 24 h later, the medium is changed to M199 medium supplemented with 1% FBS. One day after the medium change, cytokines or combinations thereof are added to the cultures, each cytokine being added to a final concentration of 25 ng/mL. 72 h after cytokine addition, the supernatant is collected and processed in the MMP1 ELISA as described in the protocol given above. In parallel with this experiment, SFs are triggered, using the same protocol, with the supernatant of THP1 cells (2-fold diluted in M199+1% FBS) treated with the same cytokines or combinations of cytokines for 48 h in M199 medium+1% FBS. The induction of the MMP1 expression by SFs triggered with the supernatants of TNF-α-treated THP1 cells is stronger (>4.5 fold induction) as compared to the SFs triggered with recombinant TNF-α alone (3-fold induction) and almost equals the 5-fold induction obtained by a mixture of 3 purified cytokines (TNF-α, IL1βb, OSM). […] As the role of TNF-α in the RA pathogenesis is validated (TNF-α-blockers such as Infliximab and Etanercept show some efficacy in the treatment of RA patients) and the THP-1 cells are representative for monocytes/macrophages present in the joint of RA patients, the TNF-α-based trigger mixture prepared by contacting THP-1 cells with TNF-α will contain factors present in the joints of RA patients and subsequently is relevant to RA. This TNF-α-based complex trigger, further referred to as the ‘complex trigger’, will further be used as basis for the ‘MMP assay’. […]

[2] = system: MMP13 expression in SW1353 chondrosarcoma cell line; experiment: MMP13 assay: IL-1/OSM-driven MMP13 expression in SW1353 cells (MMP13 ELISA); type: cell-based; conditions: Homo sapiens, IL-1β and OSM, 48 hr
Procedure: The protocol of the MMP13 ELISA is described in section 4.1, then testing of compounds on release of IL-1/OSM-driven MMP13 expression in SW1353 chondrosarcoma cell line is described in section 4.2.
A 384 well format ELISA for measurement of MMP13 was developed. Various primary antibodies were tested, as well as various ELISA protocols. The following protocol is developed and validated to measure MMP13 levels in supernatant of cell cultures in 384 well plates.
Black maxisorb 384 well plates (Nunc 460518) are coated with 35 μl of a buffered solution containing 1.5 μg/mL anti-MMP13 antibody MAB511 (R&D systems). The antibody is diluted in carbonate-bicarbonate coating buffer (1.59 g Na2CO3 (Sigma S-7795) and 2.93 g NaHCO3 (Sigma S-5761) in 1 L MilliQ water, adjusted to pH 9.6). After overnight incubation at 4° C., wells are washed twice with 100 μL PBST (80 g NaCl, 2 g KCl (Sigma), 11.5 g Na2HPO4.7H2O and 2 g KH2PO4 in 10 L milliQ water; pH 7.4+0.05% Tween-20 (Sigma)) and blocked with 100 μL/well blocking buffer (5% non fat dry milk in PBS). After overnight incubation at 4° C., wells are washed twice with 100 μL PBST. The PBST is removed and 35 μL of sample is transferred to the ELISA plates. After 4 hr incubation at RT, plates are washed twice with PBST and incubated for 1 hr at 37° C. with 35 μL/well 1.5 mM APMA solution (a 10 mM APMA stock solution is prepared one day before (35.18 mg APMA (Sigma A-9563) in 10 mL 0.1M NaOH (Merck 1.06469.1000) and stored at 4° C. Before use, the 10 mM APMA stock solution is diluted to 1.5 mM in 1×APMA buffer (10× APMA buffer: 500 mM Tris (Roche 708976), 50 mM CaCl2 (Sigma C-5080), […] ZnCl2 (Sigma Z-0173), 1.5 M NaCl (Calbiochem 567441), 0.5% Brij35 (Sigma 430 AG-6) and adjust to pH 7.0). After activation of MMP13 by APMA, plates are washed again two times with 100 μL PBST/well and 35 μL of substrate solution is added to each well. Substrate solution is prepared as follows: OmniMMP Fluorescent substrate (Biomol P-126) stock solution (2 mM in DMSO, stored at −20° C.) is diluted in 1× OmniMMP buffer (10× OmniMMP buffer: 500 mM Hepes (Sigma H4034), 100 mM CaCl2 (Sigma C5080), 0.5% Brij35 (Sigma 430 AG-6; adjusted to pH 7.0) to a final concentration of 0.01 mM. After an overnight incubation at 37° C., the active MMP13 in the sample has cleaved the substrate and released fluorescence. Readout is performed on the EnVision (Perkin Elmer) using 320 nm excitation/405 nm emission filters.
Human chondrosarcoma cell line SW1353 was acquired from ATCC and grown in DMEM supplemented with 10% heat-inactivated FBS and 1× penicillin/streptomycin (Invitrogen) in a humidified 5% CO2 incubator at 37° C. Aliquots of the cells were frozen and cryopreserved in liquid nitrogen. Starting from a cryopreserved aliquot, cells are further grown by sub-culturing at a 1/5-1/8 ratio twice a week by trypsinisation.
Starting from the compound master stocks (all at 10 mM concentration in 100% DMSO) a 3-fold serial dilution is made in 96-well plates in 100% DMSO. Then, plates are futher diluted 50-fold in M199 medium supplemented with 1% heat-inactivated FBS to obtain an intermediate work stock.
At day 1, SW1353 cells are seeded in 96-well plates (flat bottom, tissue culture treated, Greiner) at a density of 15000 cells/well in 120 μL growth medium. The next day, 15 μL compound out of the intermediate work stock is added. After an incubation period of 60 minutes, which allows the compounds to equilibrate and enter the cells, cells are stimulated with a mixture of IL-1β and OSM, added in a volume of 15 μL to obtain final concentrations of 1 ng/ml IL-1β and 25 ng/ml OSM. For that, stocks of IL-1 (10 μg/ml) and OSM (25 μg/ml) (both PeproTech) were diluted to 10 ng/ml and 250 ng/ml respectively, in M199 medium supplemented with 1% FBS. After incubation for 48 hr, the cell supernatant was harvested and an appropriate dilution was processed in the MMP13 ELISA as described above, delivering raw data (RFU: relative fluorescence units). […]

SMILES | IC50 (MAPKAPK5) [nM] | IC50 [1] [nM] | IC50 [2] [nM]
CC(C)N1CC2CCC1CN2c1ccc(Nc2ncc(-c3coc(C(N)=O)c3)n3ccnc23)cc1 (stereo not drawn) [Compound 10, 4-{8-(4-(5-isopropyl-1-2,5-diazabicyclo[2.2.2]octan-2-yl)phenylamino)-imidazo[1,2-a]pyrazin-5-yl}-furan-2-carboxamide] | 101 to 500 | > 1000 | 
CC(C)N1CC2CCC(C1)N2c1ccc(Nc2ncc(-c3coc(C(N)=O)c3)n3ncnc23)cc1 [Compound 13, 4-{8-(4-(3-isopropyl-3,8-diazabicyclo[3.2.1]octan-8-yl)phenylamino)[1,2,4]-triazolo[1,5-a]pyrazin-5-yl}-furan-2-carboxamide] | 0.01 to 100 |  | > 1000
CC(C)N1C2CCC1CN(c1ccc(Nc3ncc(-c4coc(C(N)=O)c4)n4ccnc34)cc1)C2 [Compound 14, 4-{8-(4-(8-isopropyl-3,8-diazabicyclo[3.2.1]octan-3-yl)phenylamino)-imidazo[1,2-a]pyrazin-5-yl}-furan-2-carboxamide] | 101 to 500 | > 1000 | 

The next lines start with results.

IC50 (MAPKAPK5) [nM] | SMILES | IC50 [1] [nM] | IC50 [2] [nM]
0.01 to 100 | CC(C)N1C[C@H]2C[C@@H]1CN2c1ccc(Nc2ncc(-c3coc(C(N)=O)c3)n3ncnc23)cc1 [Compound 27, 4-[8-({4-[(1R,4R)-5-isopropyl-2,5-diazabicyclo[2.2.1]hept-2-yl]phenyl}amino)[1,2,4]triazolo[1,5-a]pyrazin-5-yl]-2-furamide] |  | 
0.01 to 100 | CC(C)N1C[C@@H]2C[C@H]1CN2c1ccc(Nc2ncc(-c3coc(C(N)=O)c3)n3ncnc23)cn1 [Compound 7, 4-{8-(6-((1S,4S)-5-isopropyl-2,5-diazabicyclo[2.2.1]heptan-2-yl)pyridin-3-ylamino)-[1,2,4]triazolo[1,5-a]pyrazin-5-yl}-furan-2-carboxamide] |  | 1 to 500
